From patent US20250009745A1, “CDK INHIBITOR” (SHANGHAI QILU PHARMACEUTICAL RESEARCH AND DEVELOPMENT …, priority 2021, published 2025) come the findings set out here.

In test [1] the target is T1, CDK2 (Homo sapiens, UniProt P24941).
T1 construct: purchased Carna Company
Nature of the test: CDK enzymology experiment in vitro, capillary mobility shift assay (MSA). The format is biochemical. The conditions noted are these: read-out: CDK2 (nM) inhibitory IC50. On the procedure:
(§1) CDK1/CDK2/CDK4/CDK6/CDK7/CDK9 were purchased from Carna Company; Carliper substrate CTD3/substrate 18/substrate 8 were purchased from Gil Biochemical Company; Dinaciclib/Palbociclib were purchased from Selleckchem Company; DMSO was purchased from Sigma Company; 384-well plates were purchased from Corning Company.
(§2) • (1) Preparation of 1×Kinase buffer. • (2) Preparation of compound concentration gradient: Test concentration of the test compound was started at 1 μM, 10 μM or 30 μM, 3-fold dilution, 10 concentrations, detected in duplicate. The test compound was diluted to a 100-fold final concentration with 100% DMSO solution in a 384 source plate. Liquid handler Echo 550 was used to transfer 250 nL of 100-fold final concentration of the compound to the target plate 384-well plate. […] The 384-well plate was centrifuged at 1000 rpm for 30 seconds, and shaken to mix uniformly. • (10) The conversion rate was read with Caliper EZ Reader.
(§3) Where, conversion %_sample is the readings of conversion rate of the sample; conversion %_min: the average value of negative control wells, representing the readings of conversion rate of wells without enzyme activity; conversion %_max: the average value of positive control wells, representing the readings of conversion rate of wells without compound inhibition.
(§4) Taking the log value of the concentration as the X-axis, and the percentage inhibition rate as the Y-axis, the dose-effect curve was fitted using the log(inhibitor) vs. response—Variable slope of the analysis software GraphPad Prism 5 so as to obtain the IC50 value of each compound on the enzyme activity.
(§5) Y=Bottom+(Top−Bottom)/(1+10^((Log IC50−X)*HillSlope)). Calculation formula: […]

In test [2] the target is T2, CDK4 (Homo sapiens, UniProt P11802).
T2 construct: purchased Carna Company
The test is described as above. The test is classed as biochemical. To be noted: read-out: CDK4 (nM) inhibitory IC50. The method, then: as §1, §2, §3, §4, §5

T2 sequence (P11802 whole entry): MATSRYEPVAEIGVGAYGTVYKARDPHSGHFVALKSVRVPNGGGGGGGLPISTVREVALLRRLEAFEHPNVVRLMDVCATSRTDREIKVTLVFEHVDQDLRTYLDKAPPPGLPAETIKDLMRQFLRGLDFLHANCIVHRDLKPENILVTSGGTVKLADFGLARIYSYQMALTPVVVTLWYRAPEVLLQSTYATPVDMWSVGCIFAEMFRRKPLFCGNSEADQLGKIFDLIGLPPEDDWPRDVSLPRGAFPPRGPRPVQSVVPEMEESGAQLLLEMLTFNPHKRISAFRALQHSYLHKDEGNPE
T2 sequence (P30281 whole entry partner): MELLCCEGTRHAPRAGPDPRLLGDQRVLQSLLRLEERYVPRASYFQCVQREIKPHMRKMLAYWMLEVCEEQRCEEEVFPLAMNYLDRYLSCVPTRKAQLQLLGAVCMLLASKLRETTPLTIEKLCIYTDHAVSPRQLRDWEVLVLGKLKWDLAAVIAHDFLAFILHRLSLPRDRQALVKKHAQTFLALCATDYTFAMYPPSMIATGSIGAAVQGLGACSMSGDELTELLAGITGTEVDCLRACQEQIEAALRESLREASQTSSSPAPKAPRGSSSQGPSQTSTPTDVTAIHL

For `CC(C)n1cc(S(=O)(=O)N2CCC(Nc3ncc(C(F)(F)F)c(O[C@H]4CCOC4)n3)CC2)cn1` [Compound 110], the IC50 is 0.5 to 2.5 nM in test [1] and 10 to 50 nM in test [2].

Turning to `Cn1cc(S(=O)(=O)N2CCC(Nc3ncc(C#N)c(O[C@@H]4CCC[C@@H]4O)n3)CC2)cn1` (relative stereo) [Compound 65], the IC50 in test [1] was in the range of 2.5 to 10 nM; in test [2], 10 to 50 nM.

`Cn1cc(S(=O)(=O)N2CCC(Nc3ncc(C#N)c(CC4CCCC4)n3)CC2)cn1` [Example 10, 4-(Cyclopentylmethyl)-2-((1-((1-methyl-1H-pyrazol-4-yl)sulfonyl)piperidin-4-yl)amino)pyrimidine-5-carbonitrile]: the IC50 lay within 2.5 to 10 nM in test [1] and 10 to 50 nM in test [2].

On to `Cn1cc(S(=O)(=O)N2CCC(Nc3ncc(C#N)c(N[C@@H]4CCC[C@@]4(C)O)n3)CC2)cn1` (single isomer, unassigned) [Example 20], for which the figures for the IC50 in test [1] and in test [2] were 10 to 50 nM and 100 to 1000 nM, respectively.

With `C[C@H](CO)Nc1nc(NC2CCN(S(=O)(=O)c3cnn(C)c3)CC2)ncc1C#N` [Compound 70], the IC50 was 10 to 50 nM in test [1] and 50 to 100 nM in test [2].

For the compound `CN1CC[C@H](Oc2nc(NC3CCN(S(=O)(=O)c4cnn(C)c4)CC3)ncc2C#N)C1` [Compound 74], the figures for the IC50 in test [1] and in test [2] were 10 to 50 nM and 50 to 100 nM, respectively.

Consider `Cn1cc(-c2ccc(S(=O)(=O)N3CCC(Nc4ncc(C#N)c(N[C@@H]5CC[C@@H](O)C5)n4)CC3)cc2)cn1` (single isomer, unassigned) [Compound 63], for which the IC50 in test [1] fell in the range of 0.5 to 2.5 nM; in test [2], 2.5 to 10 nM.

On to `N#Cc1cnc(NC2CCN(S(=O)(=O)c3ccc(C4=CCNCC4)cc3)CC2)nc1N[C@@H]1CCC[C@H]1O` [Compound 91], for which the IC50 in test [1] is 0.5 to 2.5 nM; in test [2], 2.5 to 10 nM.

As to `O=S(=O)(c1cnn(S(=O)(=O)c2cn[nH]c2)c1)N1CCC(Nc2ncc(C(F)(F)F)c(O[C@H]3CCOC3)n2)CC1` [Example 26, (S)—N-(1-((1-((1H-Pyrazol-4-yl)sulfonyl)-1H-pyrazol-4-yl)sulfonyl)piperidin-4-yl)-4-((tetrahydrofuran-3-yl)oxy)-5-(trifluoromethyl)pyrimidin-2-amine], the IC50 was below 0.5 nM in test [1] and 2.5 to 10 nM in test [2].

Consider `Cn1cc(S(=O)(=O)N2CCC(Nc3ncc(C#N)c(NC4CCCC4(F)F)n3)CC2)cn1` (stereo not shown) [Compound 37], for which the IC50 in test [1] and in test [2] was 2.5 to 10 nM in each case.

As for `Cn1cc(S(=O)(=O)N2CCC(Nc3ncc(C#N)c(NC(C)(C)C)n3)CC2)cn1` [Compound 42], the IC50 in test [1] and in test [2] was 10 to 50 nM throughout.

With `Cn1cc(S(=O)(=O)N2CCC(Nc3ncc(C#N)c(SC4CCCC4)n3)CC2)cn1` [Compound 96], the concentration for half-maximal inhibition (IC50) was 0.5 to 2.5 nM in test [1] and 2.5 to 10 nM in test [2].

For the compound `O=S(=O)(c1ccc(C2=CCNCC2)cc1)N1CCC(Nc2ncc(C(F)(F)F)c(C=C3CCCC3)n2)CC1` [Compound 201], the IC50 in test [1] was in the range of 0.5 to 2.5 nM; in test [2] it was 2.5 to 10 nM.

For the compound `Cn1cc(-c2ccc(S(=O)(=O)N3CCC(Nc4ncc(C#N)c(N[C@@H]5CCC[C@@H]5O)n4)CC3)cc2)cn1` [Compound 61], the IC50 in test [1] was 0.5 to 2.5 nM; in test [2] it was 2.5 to 10 nM.

`Cn1cc(S(=O)(=O)N2CCC(Nc3ncc(C#N)c(C=C4CCCC4)n3)CC2)cn1` [Example 9, 4-(Cyclopentylidenemethyl)-2-((1-((1-methyl-1H-pyrazol-4-yl)sulfonyl)piperidin-4-yl)amino)pyrimidine-5-carbonitrile]: the IC50 in test [1] was 0.5 to 2.5 nM; in test [2], 10 to 50 nM.

For `Cn1cc(S(=O)(=O)N2CCC(Nc3ncc(C(F)F)c(O[C@H]4CCOC4)n3)CC2)cn1` [Compound 126], the IC50 was in the range of 10 to 50 nM in test [1] and 100 to 1000 nM in test [2].

Consider `Cn1cc(S(=O)(=O)N2CCC(Nc3ncc(C#N)c(O[C@@H]4CCOC4)n3)CC2)cn1` [Compound 89], for which the results for the IC50 in test [1] and in test [2] were 10 to 50 nM and 50 to 100 nM, respectively.

As to `CS(=O)(=O)N1CCC(Nc2ncc(C#N)c(-c3ccccc3)n2)CC1` [Example 4, 2-((1-(Methylsulfonyl)piperidin-4-yl)amino)-4-phenylpyrimidine-5-carbonitrile], the IC50 in test [1] and in test [2] was 10 to 50 nM in each case.

As to `Cn1cc(S(=O)(=O)N2CCC(Nc3ncc(C#N)c(N[C@H]4CC[C@@H](O)C4)n3)CC2)cn1` (single isomer, unassigned) [Example 12], the IC50 is 2.5 to 10 nM in test [1] and 10 to 50 nM in test [2].

With `Cn1cc(S(=O)(=O)N2CCC(Nc3cc(O[C@H]4CCOC4)c(C#N)cn3)CC2)cn1` [Compound 158], the figures for the IC50 in test [1] and in test [2] were 2.5 to 10 nM and 10 to 50 nM, respectively.

As for `Cn1cc(S(=O)(=O)N2CCC(Nc3ncc(C#N)c(NC4COC4)n3)CC2)cn1` [Compound 80], the IC50 in test [1] is 2.5 to 10 nM; in test [2] it was 100 to 1000 nM.

`Cn1cc(S(=O)(=O)N2CCC(Nc3ncc(C(F)(F)F)c(O[C@@H]4COC[C@@H]4O)n3)CC2)cn1` (relative stereo) [Compound 111]: the IC50 in test [1] lay within 2.5 to 10 nM; in test [2] it was 50 to 100 nM.

As to `Cn1cc(S(=O)(=O)N2CCC(Nc3ncc(C#N)c(O[C@H]4CCC[C@@H]4O)n3)CC2)cn1` (single isomer, unassigned) [Compound 66], the IC50 in test [1] lay in the range of 2.5 to 10 nM; in test [2], 10 to 50 nM.

For `Cn1cc(S(=O)(=O)N2CCC(Nc3ncc(C#N)c(NC4CCOCC4)n3)CC2)cn1` [Compound 81], the IC50 in test [1] fell in the range of 10 to 50 nM; in test [2] it was 100 to 1000 nM.

For the compound `Cn1cc(S(=O)(=O)N2CCC(Nc3ncc(C#N)c(N[C@@H]4CC[C@H](O)C4)n3)CC2)cn1` (single isomer, unassigned) [Example 13], the IC50 in test [1] was in the range of 2.5 to 10 nM; in test [2], 10 to 50 nM.

`CO[C@@H]1CCC[C@H]1Nc1nc(NC2CCN(S(=O)(=O)c3cnn(C)c3)CC2)ncc1C#N` [Example 14]: the concentration for half-maximal inhibition (IC50) in test [1] was in the range of 10 to 50 nM; in test [2] it was 100 to 1000 nM.

Consider `Cn1cc(S(=O)(=O)N2CCC(Nc3ncc(C#N)c([S+]([O-])C4CCCC4)n3)CC2)cn1` (stereo not shown) [Compound 98], for which the IC50 in test [1] is below 0.5 nM; in test [2], 10 to 50 nM.

For the compound `Cn1cc(S(=O)(=O)N2CC[C@H](Nc3ncc(C(F)(F)F)c(O[C@H]4CCOC4)n3)[C@H](F)C2)cn1` [Compound 127], the IC50 was below 0.5 nM in test [1] and 10 to 50 nM in test [2].

`CC(C)(O)c1ccc(S(=O)(=O)N2CCC(Nc3ncc(C#N)c(NC4CCCC4)n3)CC2)cc1` [Example 24, 4-(Cyclopentylamino)-2-((1-((4-(2-hydroxypropan-2-yl)phenyl)sulfonyl)piperidin-4-yl)amino)pyrimidine-5-carbonitrile]: the IC50 in test [1] was in the range of 0.5 to 2.5 nM; in test [2] it was 2.5 to 10 nM.

On to `CN1CC[C@H](Nc2nc(NC3CCN(S(=O)(=O)c4cnn(C)c4)CC3)ncc2C#N)C1` [Compound 72], for which the IC50 is 2.5 to 10 nM in test [1] and 10 to 50 nM in test [2].

As to `Cn1cc(S(=O)(=O)N2CCC(Nc3ncc(C#N)c(O[C@H]4CCOC4)n3)CC2)cn1` [Compound 64], the IC50 in test [1] lay within 2.5 to 10 nM; in test [2], 10 to 50 nM.

In the case of `CC(C)S(=O)(=O)N1CCC(Nc2ncc(C#N)c(NC3CCCC3)n2)CC1` [Compound 29], the IC50 in test [1] and in test [2] was 10 to 50 nM each time.

As to `O=S(=O)(c1ccc(C2=CCNCC2)cc1)N1CCC(Nc2ncc(C(F)(F)F)c(N[C@@H]3CCC[C@H]3O)n2)CC1` [Compound 102], the IC50 in test [1] was in the range of 0.5 to 2.5 nM; in test [2] it was 2.5 to 10 nM.

Consider `C[C@H]1COCCN1c1nc(NC2CCN(S(=O)(=O)c3cnn(C)c3)CC2)ncc1C#N` [Compound 75], for which the IC50 in test [1] and in test [2] was 10 to 50 nM each time.

For `N#Cc1cnc(NC2CCN(S(=O)(=O)c3ccc(Br)cc3)CC2)nc1N[C@H]1CCOC1` [Compound 106], the IC50 lay within 10 to 50 nM in test [1] and 100 to 1000 nM in test [2].

As to `NC(=O)Cn1cc(S(=O)(=O)N2CCC(Nc3ncc(C(F)(F)F)c(O[C@H]4CCOC4)n3)CC2)cn1` [Compound 134], the figures for the IC50 in test [1] and in test [2] were below 0.5 nM and 10 to 50 nM, respectively.

On to `Cn1cc(S(=O)(=O)N2CCC(Nc3ncc(C#N)c(NC4CCC(F)(F)C4)n3)CC2)cn1` (stereo not shown) [Compound 41], for which the IC50 in test [1] is 2.5 to 10 nM; in test [2] it was 10 to 50 nM.

For `Cn1cc(-c2ccc(S(=O)(=O)N3CCC(Nc4ncc(C#N)c(N[C@@H]5CCOC5)n4)CC3)cc2)cn1` [Compound 95], the IC50 in test [1] fell in the range of 0.5 to 2.5 nM; in test [2], 10 to 50 nM.

For `Cn1cc(S(=O)(=O)N2CCC(Nc3ncc(C(F)(F)F)c(O[C@@H]4CCOC4)n3)CC2)cn1` [Compound 88], the values for the IC50 in test [1] and in test [2] were 0.5 to 2.5 nM and 10 to 50 nM, respectively.

Consider `Cn1cc(-c2ccc(S(=O)(=O)N3CCC(Nc4ncc(C#N)c(NC5(C)CCOC5)n4)CC3)cc2)cn1` (stereo not shown) [Compound 150], for which the IC50 in test [1] is 0.5 to 2.5 nM; in test [2], 2.5 to 10 nM.

In the case of `Cn1cc(S(=O)(=O)N2CCC(Nc3ncc(C#N)c(NC4CC(F)(F)C4)n3)CC2)cn1` [Compound 78], the IC50 in test [1] fell in the range of 2.5 to 10 nM; in test [2], 10 to 50 nM.
